{"source": "paper PMC4052115", "about": "(Journal of immunology (Baltimore, Md. : 1950), 2014)", "key": {"[1]": {"system": "DC2.4 cells", "format": "cell-based"}, "[2]": {"assay": "Immunogenicity in preliminary experiments", "conditions": "data not shown"}, "[3]": {"target": "H-2K^b (K^b heavy chain with β2-microglobulin), recombinant, refolded (mouse | not stated)", "assay": "circular dichroism thermal denaturation"}, "[4]": {"system": "brain-derived CD8 T cells", "assay": "IFN-γ intracellular cytokine staining of brain-derived leukocytes", "format": "cell-based, C57BL/6 (B6) mice", "conditions": "brain-derived cells of rJ-infected mice, day 7 p.i."}, "[5]": {"system": "brain-derived CD8 T cells", "conditions": "ref [14]; cited from earlier work"}}, "data": [{"substance": "TSYKFESV [Epitope B8_20-27]", "values": [{"measurement": "level of VacV-derived control peptide", "setting": "[1]", "result": "equivalently high levels"}]}, {"substance": "RCEIFANI [Epitope Q600E]", "values": [{"measurement": "immunogenicity", "setting": "[2]", "result": "not immunogenic"}]}, {"substance": "Q600F peptide (heteroclitic S598 analogue), Aba-modified (from UniProt P22432 598-605)", "values": [{"measurement": "Tm of the K^b/peptide complex", "setting": "[3]", "result": 62.7, "unit": "°C"}]}, {"substance": "RCYIFANI [Epitope Q600Y]", "values": [{"measurement": "fraction of S598-primed CD8 T cells recognizing the variant peptide", "setting": "[4]", "result": "only a small fraction"}, {"measurement": "fraction of responding T cells that recognized only the variant epitope", "setting": "[5]", "result": "~ 35%"}]}, {"substance": "S598 peptide (native epitope), Aba-modified", "values": [{"measurement": "Tm of the K^b/peptide complex", "setting": "[3]", "result": 56.2, "unit": "°C"}]}, {"substance": "CSLWNGPHL [Epitope S510]", "values": [{"measurement": "detection of peptide eluted from MHC complexes", "setting": "[1]", "result": "neither peptide was detectable"}]}]}
